Results: US9512141B2, “Pyrazine derivatives as CB2 receptor agonists” (Hoffmann-La Roche Inc., priority 2012, dated 2016)
Where two headings read alike, the source gives them in different places.

Legend:
human CB2 receptors = human CB2 receptors (Homo sapiens (Human), UniProt P34972); experiment: cAMP assay (functional), CHO cells expressing human CB2 receptors; type: cell-based
Method: (§1) CHO cells expressing human CB1 or CB2 receptors are seeded 17-24 hours prior to the experiment 50.000 cells per well in a black 96 well plate with flat clear bottom (Corning Costar #3904) in DMEM (Invitrogen No. 31331), 1×HT supplement, with 10% fetal calf serum and incubated at 5% CO2 and 37° C. in a humidified incubator. The growth medium was exchanged with Krebs Ringer Bicarbonate buffer with 1 mM IBMX and incubated at 30° C. for 30 min. Compounds were added to a final assay volume of 100 μl and incubated for 30 min at 30° C. Using the cAMP-Nano-TRF detection kit the assay (Roche Diagnostics) was stopped by the addition of 50 μl lysis reagent (Tris, NaCl, 1.5% Triton X100, 2.5% NP40, 10% NaN3) and 50 μl detection solutions (20 μM mAb Alexa700-cAMP 1:1, and 48 μM Ruthenium-2-AHA-cAMP) and shaken for 2 h at room temperature. The time-resolved energy transfer is measured by a TRF reader (Evotec Technologies GmbH), equipped with a ND:YAG laser as excitation source. The plate is measured twice with the excitation at 355 nm and at the emission with a delay of 100 ns and a gate of 100 ns, total exposure time 10 s at 730 (bandwidth 30 nm) or 645 nm (bandwidth 75 nm), respectively. The FRET signal is calculated as follows: FRET=T730-Alexa730-P (T645-B645) with P=Ru730-B730/Ru645-B645, where T730 is the test well measured at […], T645 is the test well measured at 645 nm, B730 and B645 are the buffer controls at 730 nm and 645 nm, respectively. cAMP content is determined from the function of a standard curve spanning from 10 μM to 0.13 nM cAMP.
(§2) EC50 values were determined using Activity Base analysis (ID Business Solution, Limited). The EC50 values for a wide range of cannabinoid agonists generated from this assay were in agreement with the values published in the scientific literature.

human CB1 receptors = human CB1 receptors (Homo sapiens (Human), UniProt P21554); experiment: cAMP assay (functional), CHO cells expressing human CB1 receptors; type: cell-based
Method: as §1, §2

[1] = functional cAMP assay, CHO cells expressing human CB2, read-out: human CB2 EC50
[2] = functional cAMP assay, CHO cells expressing human CB1, read-out: human CB1 EC50

Chain of human CB1 receptors (P21554 whole entry): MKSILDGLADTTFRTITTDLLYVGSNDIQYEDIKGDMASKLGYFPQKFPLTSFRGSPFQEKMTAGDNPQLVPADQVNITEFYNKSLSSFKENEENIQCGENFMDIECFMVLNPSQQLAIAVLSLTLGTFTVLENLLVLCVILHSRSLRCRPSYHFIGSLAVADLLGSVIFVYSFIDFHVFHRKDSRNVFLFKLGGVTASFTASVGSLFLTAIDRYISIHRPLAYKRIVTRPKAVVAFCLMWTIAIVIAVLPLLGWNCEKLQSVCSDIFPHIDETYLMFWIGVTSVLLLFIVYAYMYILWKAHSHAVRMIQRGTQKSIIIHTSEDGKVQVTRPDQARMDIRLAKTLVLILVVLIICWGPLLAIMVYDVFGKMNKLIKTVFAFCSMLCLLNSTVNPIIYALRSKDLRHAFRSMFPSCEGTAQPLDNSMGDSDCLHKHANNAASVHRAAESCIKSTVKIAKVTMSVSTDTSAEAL
Chain of human CB2 receptors (P34972 whole entry): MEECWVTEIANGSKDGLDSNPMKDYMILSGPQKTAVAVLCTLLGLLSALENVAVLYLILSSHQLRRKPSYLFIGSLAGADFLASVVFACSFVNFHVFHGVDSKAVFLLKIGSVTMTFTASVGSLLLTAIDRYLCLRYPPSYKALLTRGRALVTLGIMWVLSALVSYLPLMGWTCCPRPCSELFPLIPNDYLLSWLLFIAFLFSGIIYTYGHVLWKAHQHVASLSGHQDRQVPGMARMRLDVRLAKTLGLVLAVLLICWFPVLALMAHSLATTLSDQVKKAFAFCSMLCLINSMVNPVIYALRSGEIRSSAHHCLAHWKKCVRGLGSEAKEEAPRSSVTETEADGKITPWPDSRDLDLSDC

Question: Which results are given for `NC(=O)C1CC2(CC2)CN1C(=O)c1cnc(N2CC(F)(F)C2)c(OCC2CC2)n1` (racemic) [Example 40, (±)-5-[6-(Cyclopropylmethoxy)-5-(3,3-difluoroazetidin-1-yl)pyrazine-2-carbonyl]-5-azaspiro[2.4]heptane-6-carboxamide]?
Answer: EC50 (human CB2 receptors): 39 nM; EC50 (human CB1 receptors): > 10000 nM

Question: Which results are given for `NC(=O)C1CCCCN1C(=O)c1cnc(N2CC(F)(F)C2)c(OCC2CC2)n1` (single isomer, unassigned; (-)) [Example 36, (−)-1-[6-Cyclopropylmethoxy-5-(3,3-difluoro-azetidin-1-yl)-pyrazine-2-carbonyl]-piperidine-2-carboxylic acid amide]?
Answer: EC50 (human CB2 receptors; [1]): 217 nM; EC50 (human CB1 receptors; [2]): > 10000 nM

Question: How did the EC50 (human CB2 receptors; [1]) turn out when `NC(=O)C1CSCCN1C(=O)c1cnc(N2CC(F)(F)C2)c(OCC2CC2)n1` (single isomer, unassigned; (-)) [Example 37, (−)-4-[6-Cyclopropylmethoxy-5-(3,3-difluoro-azetidin-1-yl)-pyrazine-2-carbonyl]-thiomorpholine-3-carboxylic acid amide] was run?
Answer: 308 nM

Question: What about the EC50 (human CB1 receptors; [2]) of the same compound?
Answer: > 10000 nM

Question: How did the EC50 (human CB2 receptors; [1]) turn out when `CC1(C)CC(C(N)=O)N(C(=O)c2cnc(N3CC(F)(F)C3)c(OCC3CC3)n2)C1` (single isomer, unassigned; (-)) [Example 38, (−)-1-[6-Cyclopropylmethoxy-5-(3,3-difluoro-azetidin-1-yl)-pyrazine-2-carbonyl]-4,4-dimethyl-pyrrolidine-2-carboxylic acid amide] was run?
Answer: 1.4 nM

Question: What about the EC50 (human CB1 receptors; [2]) of the same compound?
Answer: > 10000 nM

Question: For `CC1(C)CC(C(N)=O)N(C(=O)c2cnc(C3CC3)c(OCC3CC3)n2)C1` (single isomer, unassigned; (-)) [Example 39, (−)-1-(5-Cyclopropyl-6-cyclopropylmethoxy-pyrazine-2-carbonyl)-4,4-dimethyl-pyrrolidine-2-carboxylic acid amide], which EC50 (human CB2 receptors; [1]) is on record?
Answer: 10.3 nM

Question: And the EC50 (human CB1 receptors; [2])?
Answer: > 10000 nM

Question: For `C[C@@H]1CCCN1C(=O)c1cnc(C2CC2)c(OCC2CC2)n1` [Example 1, (5-Cyclopropyl-6-cyclopropylmethoxy-pyrazin-2-yl)-((R)-2-methyl-pyrrolidin-1-yl)-methanone], which EC50 (human CB2 receptors; [1]) is on record?
Answer: 57.3 nM

Question: And the EC50 (human CB1 receptors; [2])?
Answer: > 10000 nM

Question: Which results are given for `C[C@@H]1CCCN1C(=O)c1cnc(N2CC(F)(F)C2)c(OCC2CC2)n1` [Example 2, [6-Cyclopropylmethoxy-5-(3,3-difluoro-azetidin-1-yl)-pyrazin-2-yl]-((R)-2-methyl-pyrrolidin-1-yl)-methanone]?
Answer: EC50 (human CB2 receptors; [1]): 4.9 nM; EC50 (human CB1 receptors; [2]): > 10000 nM

Question: How did the EC50 (human CB2 receptors; [1]) turn out when `COCCN(C(=O)c1cnc(N2CC(F)(F)C2)c(OCC2CC2)n1)C(C)(C)C` [Example 3, 6-Cyclopropylmethoxy-5-(3,3-difluoro-azetidin-1-yl)-pyrazine-2-carboxylic acid tert-butyl-(2-methoxy-ethyl)-amide] was run?
Answer: 4 nM

Question: And the EC50 (human CB1 receptors; [2])?
Answer: > 10000 nM

Question: `CC1(C)COCCN1C(=O)c1cnc(N2CC(F)(F)C2)c(OCC2CC2)n1` [Example 4, [6-Cyclopropylmethoxy-5-(3,3-difluoro-azetidin-1-yl)-pyrazin-2-yl]-(3,3-dimethyl-morpholin-4-yl)-methanone] was tested. Which EC50 (human CB2 receptors; [1]) did it give?
Answer: 4.3 nM

Question: And the EC50 (human CB1 receptors; [2])?
Answer: > 10000 nM

Question: What does the source list for `C[C@H]1CCCN1C(=O)c1cnc(N2CC(F)(F)C2)c(OCC2CC2)n1` [Example 5, [6-Cyclopropylmethoxy-5-(3,3-difluoro-azetidin-1-yl)-pyrazin-2-yl]-((S)-2-methyl-pyrrolidin-1-yl)-methanone]?
Answer: EC50 (human CB2 receptors; [1]): 81.7 nM; EC50 (human CB1 receptors; [2]): > 10000 nM

Question: What does the source list for `O=C(c1cnc(N2CC(F)(F)C2)c(OCC2CC2)n1)N1CC2CC1CO2` (stereo not shown) [Example 6, [6-Cyclopropylmethoxy-5-(3,3-difluoro-azetidin-1-yl)-pyrazin-2-yl]-2-oxa-5-aza-bicyclo[2.2.1]hept-5-yl-methanone]?
Answer: EC50 (human CB2 receptors; [1]): 257 nM; EC50 (human CB1 receptors; [2]): > 10000 nM

Question: How did the EC50 (human CB2 receptors; [1]) turn out when `CN(C(=O)c1cnc(N2CC(F)(F)C2)c(OCC2CC2)n1)C(C)(C)C` [Example 7, 6-Cyclopropylmethoxy-5-(3,3-difluoro-azetidin-1-yl)-pyrazine-2-carboxylic acid tert-butyl-methyl-amide] was run?
Answer: 3.2 nM

Question: What about the EC50 (human CB1 receptors; [2]) of the same compound?
Answer: > 10000 nM

Question: `O=C(c1cnc(N2CC(F)(F)C2)c(OCC2CC2)n1)N1CCC(F)(F)C1` [Example 8, [6-Cyclopropylmethoxy-5-(3,3-difluoro-azetidin-1-yl)-pyrazin-2-yl]-(3,3-difluoro-pyrrolidin-1-yl)-methanone] was tested. Which EC50 (human CB2 receptors; [1]) did it give?
Answer: 29.8 nM

Question: And the EC50 (human CB1 receptors; [2])?
Answer: > 10000 nM

Question: `O=C(c1cnc(N2CC(F)(F)C2)c(OCC2CC2)n1)N1CCOCC12CC2` [Example 10, [6-Cyclopropylmethoxy-5-(3,3-difluoro-azetidin-1-yl)-pyrazin-2-yl]-(7-oxa-4-aza-spiro[2.5]oct-4-yl)-methanone] was tested. Which EC50 (human CB2 receptors; [1]) did it give?
Answer: 15 nM

Question: What about the EC50 (human CB1 receptors; [2]) of the same compound?
Answer: > 10000 nM

Question: With `CCOC(=O)CN(C(=O)c1cnc(N2CC(F)(F)C2)c(OCC2CC2)n1)C(C)(C)C` [Example 11, {tert-Butyl-[6-cyclopropylmethoxy-5-(3,3-difluoro-azetidin-1-yl)-pyrazine-2-carbonyl]-amino}-acetic acid ethyl ester] as the compound, how does the EC50 (human CB2 receptors; [1]) read?
Answer: 6.8 nM

Question: What about the EC50 (human CB1 receptors; [2]) of the same compound?
Answer: > 10000 nM

Question: With `COCC(C)(C)N(C)C(=O)c1cnc(N2CC(F)(F)C2)c(OCC2CC2)n1` [Example 12, 6-Cyclopropylmethoxy-5-(3,3-difluoro-azetidin-1-yl)-pyrazine-2-carboxylic acid (2-methoxy-1,1-dimethyl-ethyl)-methyl-amide] as the compound, how does the EC50 (human CB2 receptors; [1]) read?
Answer: 9.2 nM

Question: What about the EC50 (human CB1 receptors; [2]) of the same compound?
Answer: > 10000 nM

Question: Which EC50 (human CB2 receptors; [1]) does the source give for `CC1(C)CN(C(=O)c2cnc(N3CC(F)(F)C3)c(OCC3CC3)n2)CCO1` [Example 13, [6-Cyclopropylmethoxy-5-(3,3-difluoro-azetidin-1-yl)-pyrazin-2-yl]-(2,2-dimethyl-morpholin-4-yl)-methanone] here?
Answer: 68.5 nM

Question: And the EC50 (human CB1 receptors; [2])?
Answer: > 10000 nM

Question: Which results are given for `COCC(C)(C)N(C)C(=O)c1cnc(C2CC2)c(OCC2CC2)n1` [Example 14, 5-Cyclopropyl-6-cyclopropylmethoxy-pyrazine-2-carboxylic acid (2-methoxy-1,1-dimethyl-ethyl)-methyl-amide]?
Answer: EC50 (human CB2 receptors; [1]): 14.6 nM; EC50 (human CB1 receptors; [2]): > 10000 nM

Question: With `COC(=O)[C@@H]1CCCN1C(=O)c1cnc(C2CC2)c(OCC2CC2)n1` [Example 16, (S)-1-(5-Cyclopropyl-6-cyclopropylmethoxy-pyrazine-2-carbonyl)-pyrrolidine-2-carboxylic acid methyl ester] as the compound, how does the EC50 (human CB2 receptors; [1]) read?
Answer: 191 nM

Question: What about the EC50 (human CB1 receptors; [2]) of the same compound?
Answer: > 10000 nM

Question: Which EC50 (human CB2 receptors; [1]) does the source give for `O=C(c1cnc(C2CC2)c(OCC2CC2)n1)N1CCOCC12CC2` [Example 17, (5-Cyclopropyl-6-cyclopropylmethoxy-pyrazin-2-yl)-(7-oxa-4-aza-spiro[2.5]oct-4-yl)-methanone] here?
Answer: 140 nM

Question: What about the EC50 (human CB1 receptors; [2]) of the same compound?
Answer: > 10000 nM

Question: Which EC50 (human CB2 receptors; [1]) does the source give for `NC(=O)[C@@H]1CC(F)(F)CN1C(=O)c1cnc(N2CC(F)(F)C2)c(OCC2CC2)n1` [Example 19, (S)-1-[6-Cyclopropylmethoxy-5-(3,3-difluoro-azetidin-1-yl)-pyrazine-2-carbonyl]-4,4-difluoro-pyrrolidine-2-carboxylic acid amide] here?
Answer: 5.7 nM

Question: And the EC50 (human CB1 receptors; [2])?
Answer: > 10000 nM

Question: Which results are given for `O=C(c1cnc(N2CC(F)(F)C2)c(OCC2CC2)n1)N1CCN(CCO)CC1` [Example 20, [6-Cyclopropylmethoxy-5-(3,3-difluoro-azetidin-1-yl)-pyrazin-2-yl]-[4-(2-hydroxy-ethyl)-piperazin-1-yl]-methanone]?
Answer: EC50 (human CB2 receptors; [1]): 316 nM; EC50 (human CB1 receptors; [2]): > 10000 nM

Question: `CC1(C)CCCN1C(=O)c1cnc(N2CC(F)(F)C2)c(OCC2CC2)n1` [Example 21, [6-Cyclopropylmethoxy-5-(3,3-difluoro-azetidin-1-yl)-pyrazin-2-yl]-(2,2-dimethyl-pyrrolidin-1-yl)-methanone] was tested. Which EC50 (human CB2 receptors; [1]) did it give?
Answer: 4.3 nM

Question: What about the EC50 (human CB1 receptors; [2]) of the same compound?
Answer: > 10000 nM
